Assay results from US20170333591A9, “ABSORBENT ARTICLE COMPRISING MALODOR REDUCTION COMPOSITIONS” (The Procter & Gamble Company, priority 2014, published 2017).

Test: Log of liquid dish neat product liquid-air partition coefficient
Format: physicochemical
Conditions: not given
In the case of C[C@@H]1CCC=C2CC[C@@H](C(C)(C)O)C[C@]21C [Material 1107], the “Comment Code: Log of liquid dish neat product liquid-air partition coefficient” value (shortened to “Comment Code: Log”) is reported as “K (Log of liquid dish neat product liquid-air partition coefficient greater than or equal to 7)”. With COc1ccccc1C=CC=O [Material 26] the “Comment Code: Log” value was “K (Log of liquid dish neat product liquid-air partition coefficient greater than or equal to 7)”. With CC(C)C(=O)OCCc1ccccc1 [Material 958] the “Comment Code: Log” value was “K (Log of liquid dish neat product liquid-air partition coefficient greater than or equal to 7)”. For CCC(=O)OC1CC2C3C=CCC3C1C2(C)C (stereo not shown) [Material 343], the “Comment Code: Log” value was “K (Log of liquid dish neat product liquid-air partition coefficient greater than or equal to 7)”. In the case of Cc1ccc(C(C)C)cc1O [Material 575], the “Comment Code: Log” value is reported as “K (Log of liquid dish neat product liquid-air partition coefficient greater than or equal to 7)”. With O=C/C=C/c1ccccc1 [Material 554] the “Comment Code: Log” value was “K (Log of liquid dish neat product liquid-air partition coefficient greater than or equal to 7)”. With CCCCCCOC(=O)c1ccco1 [Material 275] the “Comment Code: Log” value was “K (Log of liquid dish neat product liquid-air partition coefficient greater than or equal to 7)”. In the case of COc1cc(C)cc(O)c1 [Material 811], the “Comment Code: Log” value is reported as “K (Log of liquid dish neat product liquid-air partition coefficient greater than or equal to 7)”. For C=C(C)[C@@H]1CCC2=CC(=O)C[C@@H](C)[C@]2(C)C1 [Material 48], the “Comment Code: Log” value was “K (Log of liquid dish neat product liquid-air partition coefficient greater than or equal to 7)”. With CCc1ccccc1CC(C)(C)C=O [Material 354] the “Comment Code: Log” value was “K (Log of liquid dish neat product liquid-air partition coefficient greater than or equal to 7)”. For CC1COCc2cc3c(cc21)C(C)(C)C(C)C3(C)C (stereo not shown) [Material 335], the “Comment Code: Log” value was “K (Log of liquid dish neat product liquid-air partition coefficient greater than or equal to 7)”. With COC1(C)CCC23CC1C(C)(C)C2CCC3C (stereo not shown) [Material 565] the “Comment Code: Log” value was “K (Log of liquid dish neat product liquid-air partition coefficient greater than or equal to 7)”. With N#CC=Cc1ccccc1 [Material 549] the “Comment Code: Log” value was “K (Log of liquid dish neat product liquid-air partition coefficient greater than or equal to 7)”. With CCCc1ccc(O)c(OC)c1 [Material 440] the “Comment Code: Log” value was “K (Log of liquid dish neat product liquid-air partition coefficient greater than or equal to 7)”.

Same assay, conditions: code letter within the Comment Code cell
For CCCCCCCCCC(=O)OCC [Material 397], the “Log of liquid dish neat product liquid-air partition coefficient (Comment Code K/L)” value (shortened to “Log … (Comment Code K/L)”) was “K (Log of liquid dish neat product liquid-air partition coefficient greater than or equal to 7)”. In the case of CCCCCCC(=O)OCc1ccco1 [Material 339], the “Log … (Comment Code K/L)” value is reported as “K (Log of liquid dish neat product liquid-air partition coefficient greater than or equal to 7)”. For CCCCCCC(CO)C(C)=O (stereo not shown) [Material 106], the “Log … (Comment Code K/L)” value was “K (Log of liquid dish neat product liquid-air partition coefficient greater than or equal to 7)”. In the case of C=C(C)C1CCC(C)C(OC(C)=O)C1 (stereo not shown) [Material 444], the “Log … (Comment Code K/L)” value is reported as “K (Log of liquid dish neat product liquid-air partition coefficient greater than or equal to 7)”. In the case of CCC(=O)OC1CC2C3C=CCC3C1C2(C)C (stereo not shown) [Material 343], the “Log … (Comment Code K/L)” value is reported as “K (Log of liquid dish neat product liquid-air partition coefficient greater than or equal to 7)”. For Cc1cccc(CC(C)(C)CO)c1 [Material 140], the “Log … (Comment Code K/L)” value was “K (Log of liquid dish neat product liquid-air partition coefficient greater than or equal to 7)”. With CCOC(=O)C1C2C=CC(C2)C1C(C)C (stereo not shown) [Material 280] the “Log … (Comment Code K/L)” value was “K (Log of liquid dish neat product liquid-air partition coefficient greater than or equal to 7)”. In the case of CC=C(C)C(=O)OCCC=CCC [Material 274], the “Log … (Comment Code K/L)” value is reported as “K (Log of liquid dish neat product liquid-air partition coefficient greater than or equal to 7)”. For CCOC(=O)C12CCCC1C1CCC2C1 (stereo not shown) [Material 344], the “Log … (Comment Code K/L)” value was “K (Log of liquid dish neat product liquid-air partition coefficient greater than or equal to 7)”. In the case of O=C1CCCCCCCCCCCCCCO1 [Material 370], the “Log … (Comment Code K/L)” value is reported as “K (Log of liquid dish neat product liquid-air partition coefficient greater than or equal to 7)”. In the case of C=C(C)[C@@H]1CCC2=CC(=O)C[C@@H](C)[C@]2(C)C1 [Material 48], the “Log … (Comment Code K/L)” value is reported as “K (Log of liquid dish neat product liquid-air partition coefficient greater than or equal to 7)”. In the case of CC(C=O)Cc1cccc(C(C)(C)C)c1 (stereo not shown) [Material 134], the “Log … (Comment Code K/L)” value is reported as “K (Log of liquid dish neat product liquid-air partition coefficient greater than or equal to 7)”. In the case of C=CC1(C)CCC(C(C)(C)O)O1 (stereo not shown) [Material 155], the “Log … (Comment Code K/L)” value is reported as “K (Log of liquid dish neat product liquid-air partition coefficient greater than or equal to 7)”. In the case of CC1COCc2cc3c(cc21)C(C)(C)C(C)C3(C)C (stereo not shown) [Material 335], the “Log … (Comment Code K/L)” value is reported as “K (Log of liquid dish neat product liquid-air partition coefficient greater than or equal to 7)”. In the case of CC1CC=CCCCCCCCC(=O)OCC1 (stereo not shown) [Material 52], the “Log … (Comment Code K/L)” value is reported as “K (Log of liquid dish neat product liquid-air partition coefficient greater than or equal to 7)”. For CC(CO)C1CCCCCCCCCCC1 (stereo not shown) [Material 252], the “Log … (Comment Code K/L)” value was “K (Log of liquid dish neat product liquid-air partition coefficient greater than or equal to 7)”.

Same assay, conditions: code letters K/L of the Comment Code
In the case of Cc1cccc(CCO)c1 [Material 928], the “Log of liquid dish neat product liquid-air partition coefficient (Comment Code)” value (“Log … (Comment Code)” below) is reported as “K (Log of liquid dish neat product liquid-air partition coefficient greater than or equal to 7)”. In the case of C[C@@H]1CCC=C2CC[C@@H](C(C)(C)O)C[C@]21C [Material 1107], the “Log … (Comment Code)” value is reported as “K (Log of liquid dish neat product liquid-air partition coefficient greater than or equal to 7)”. In the case of CC1=CC2C(C(C)C)CCC(C)(O)C2CC1 (stereo not shown) [Material 1047], the “Log … (Comment Code)” value is reported as “K (Log of liquid dish neat product liquid-air partition coefficient greater than or equal to 7)”. For CCCCCCCCCCCCCO [Material 1090], the “Log … (Comment Code)” value was “K (Log of liquid dish neat product liquid-air partition coefficient greater than or equal to 7)”. With Cc1ccc(CC(C)C=O)cc1 (stereo not shown) [Material 742] the “Log … (Comment Code)” value was “K (Log of liquid dish neat product liquid-air partition coefficient greater than or equal to 7)”. With CCC(O)COC1CCCCC1C(C)(C)C (stereo not shown) [Material 677] the “Log … (Comment Code)” value was “K (Log of liquid dish neat product liquid-air partition coefficient greater than or equal to 7)”. In the case of N#CC(=C1CCCCC1)c1ccccc1 [Material 945], the “Log … (Comment Code)” value is reported as “K (Log of liquid dish neat product liquid-air partition coefficient greater than or equal to 7)”. With C=C(C)C1CCC(C)(OC(C)=O)CC1 (stereo not shown) [Material 611] the “Log … (Comment Code)” value was “K (Log of liquid dish neat product liquid-air partition coefficient greater than or equal to 7)”. In the case of COC1(C)CCC23CC1C(C)(C)C2CCC3C (stereo not shown) [Material 565], the “Log … (Comment Code)” value is reported as “K (Log of liquid dish neat product liquid-air partition coefficient greater than or equal to 7)”. For CC1CC=CCCCCCCCC(=O)OCC1 (stereo not shown) [Material 1099], the “Log … (Comment Code)” value was “K (Log of liquid dish neat product liquid-air partition coefficient greater than or equal to 7)”.
